Measurements from the supplement of paper PMC3937590.

Experiments:
Test in all cases: -log10 GI50 (growth inhibition 50%) (-log10(M)); higher = more potent growth inhibition
[1] = tested on: HCC3153
Summary of the method: (§1)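 The reported figure is the negative logarithm of GI50, defined as the molar concentration that produces the set level of growth inhibition. The logarithm is base 10. It comes from a Gompertz curve fitted by nonlinear least squares to 72-hour luminescence data from breast cancer cell lines given nine doses in 1:5 serial dilution, in triplicate, with a time-zero plate as reference. A < qualifier marks values equal to the top dose.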

[2] = tested on: 600MPE
Summary of the method: as §1

[3] = tested on: MCF10F
Summary of the method: as §1

[4] = tested on: SUM149PT
Summary of the method: as §1

[5] = tested on: LY2
Summary of the method: as §1

[6] = tested on: BT549
Summary of the method: as §1

[7] = tested on: HCC1569
Summary of the method: as §1

[8] = tested on: BT474
Summary of the method: as §1

[9] = tested on: ZR75B
Summary of the method: as §1

[10] = tested on: MCF7
Summary of the method: as §1

[11] = tested on: HCC1806
Summary of the method: as §1

[12] = tested on: MDAMB361
Summary of the method: as §1

[13] = tested on: HCC2185
Summary of the method: as §1

[14] = tested on: HS578T
Summary of the method: as §1

[15] = tested on: SUM1315MO2
Summary of the method: as §1

[16] = tested on: MDAMB415
Summary of the method: as §1

[17] = tested on: HCC1143
Summary of the method: as §1

[18] = tested on: HCC1395
Summary of the method: as §1

[19] = tested on: HCC1187
Summary of the method: as §1

SMILES	-log10 GI50 [1]	-log10 GI50 [2]	-log10 GI50 [3]	-log10 GI50 [4]	-log10 GI50 [5]	-log10 GI50 [6]	-log10 GI50 [7]	-log10 GI50 [8]	-log10 GI50 [9]	-log10 GI50 [10]	-log10 GI50 [11]	-log10 GI50 [12]	-log10 GI50 [13]	-log10 GI50 [14]	-log10 GI50 [15]	-log10 GI50 [16]	-log10 GI50 [17]	-log10 GI50 [18]	-log10 GI50 [19]
CC(=O)Nc1cccc(-n2c(=O)n(C3CC3)c(=O)c3c(Nc4ccc(I)cc4F)n(C)c(=O)c(C)c32)c1	< 4.78	8.17	8.06	7.64	< 4.78	5.55	< 4.78	< 4.78	< 4.78	< 4.78	6.39	< 4.78	< 4.78	7.47	7.19	6.19	< 4.78	6.71	< 4.78
CC(C)Oc1ccc(C(=O)N[C@H](CNC(=O)CN(C)C)Cc2ccc(-c3cn4cccc([C@H](C)O)c4n3)cc2)cc1Cl	7.22	< 4.48	6.29	7.17		7.3	6.59	5.46	7.18	5.74	7.34	7.43	7.41	7.32	7.46	7.08	6.98	7.35	7.52
CCNCCCNC/C=C\CNCCCNCC	5.24	3.68	3.76	4.55	2.9	4.73	3.71	4.24	3.61	3.46	3.88	3.15	3.39	4.54	2.95	4.17	4.05	4.09	3.16
CCn1cc(-c2ccnc3[nH]c(-c4cccc(CN(C)C)c4)cc23)c(-c2ccc(NC(=O)N(C)C)cc2)n1	4.97	5.1	5.69	5.55	5.03	5.71	6.17	5.2	5.85	5.06	5.16	5.22	6.3	6.42	5.9	5.76	5.52	5.27	7.95
O=C(O)c1ccc(-c2c[nH]c3ncc(-c4ccccc4)cc23)cc1C1CCCC1	< 4.48	< 4.18	4.59	< 4.18	5.15	< 4.48	< 4.18	< 4.18	< 4.18	< 4.48	< 4.18	< 4.18	< 4.18		6.1	< 4.48	< 4.18	< 4.18	
CCc1c2c(nc3ccc(OC(=O)N4CCC(N5CCCCC5)CC4)cc13)-c1cc3c(c(=O)n1C2)COC(=O)[C@]3(O)CC [CPT-11]	4.73	4.71	5.18		4.88	5.47	4.62	4.69	5.82	4.64	5.81	5.25	5.5	4.5	5.34	4.94	4.88	6	4.35
CCN(CC)C(=S)SSC(=S)N(CC)CC [Disulfiram]	5.13	7.1	< 4.18		5.01	6.89	< 4.18	< 4.18		4.45		6.56	< 4.18	5.44	6.36	4.89	6.95	< 4.18	6.49
COc1cccc2c1C(=O)c1c(O)c3c(c(O)c1C2=O)C[C@@](O)(C(=O)CO)C[C@@H]3O[C@H]1C[C@H](N)[C@H](O)[C@H](C)O1 [Doxorubicin]	6.48	6.69	6.64		6.71	6.94	5.59	6.51	6.67	6.11	6.79	6.63	7.29	6.31	6.73	6.52	6.6	6.6	7.3
Nc1ccn([C@@H]2O[C@H](CO)[C@@H](O)C2(F)F)c(=O)n1 [Gemcitabine]	7.19	7.64	7.08	7.84	7.62	8.08	6.76	4.88	7.34	4.77	8.72		7.61	5.66	6.91	6.05	7.92	6.47	5.07
O=C(O)C(=O)O.[NH-][C@@H]1CCCC[C@H]1[NH-].[Pt+2] [Oxaliplatin]	5.19		5.35	5.83	5.45	5.81	5.35	4.73	5.52	5.31	5.45	5.46	5.54	4.74	4.86	4.53	4.7		5.85
CC/C(=C(\c1ccccc1)c1ccc(OCCN(C)C)cc1)c1ccccc1 [Tamoxifen]	< 3.78	4.35	< 3.78	4.11	4.25	< 3.78	< 3.78	5.62		< 3.78	4.31	< 3.78	4.21	< 3.78	4.46	4.47	4.28	4.37	4.36
CC[C@@]1(O)C(=O)OCc2c1cc1n(c2=O)Cc2cc3c(CN(C)C)c(O)ccc3nc2-1 [Topotecan]	6.68		6.67		6.59	7.62	5.8	5.6	7.26	5.89	7.69	6.03	7.39	4.8	8.08	6.73	6.58	7.82	6.51
